# Measurements as given in US20040191287A1, “Fumigation process for stored food grains” (priority 2003, published 2004).
# Where two headings read alike, the source gives them in different places.
# How the values were obtained:
# [1] = tested on: T. castaneum mixed-age cultures; conditions: 72 hours at 26±2° C., 19.5 liter tin container with 12 kg wheat
# Source text: (§4) Fumigation experiments with allyl acetate have been conducted in 19.5 litre capacity tin containers with mixed- age cultures of R. dominica, S. oryzae and T. castaneum as the test insects.
# (§5) Mixed-age cultures of S. oryzae and R. dominica were obtained by allowing 300 adults of the individual species to breed in about 1 kg of wheat in a 2-liter glass jar. To obtain mixed- age culture of T. castaneum about 300 adults were released into 1 kg of whole-wheat flour plus 5% dried yeast in a 2-litre glass jar. The insect culture jars were kept under the rearing temperature conditions i.e., 25±1° C. for S. oryzae and T. castaneum and 30±1° C. for R. dominica.
# (§6) The infested grain/flour after an incubation period of 7 weeks was used for the experiment. The cultures were weighed into 50 gm aliquots in 21 cm×14 cm size cloth bags. One set of three test insect bags comprising R. dominica, S. oryzae and T. castaneum were kept at the bottom of the container before filling the grain.
# (§7) Another set of three-test insect bags was kept on the top layer of grains. The grain-filled containers were, then, fumigated with allyl acetate for 72 hours at 26±2° C. There were 6 doses ranging from 100 to 800 mg/litre with 3 replicates/dosage along with untreated controls. Required quantity of allyl acetate was measured in 10 and 25 ml measuring cylinder and quickly poured on to 5 gm of absorbent cotton wool kept over the grain layer in the tin container.
# (§8) Immediately after dosing, the container was closed with the lid tightly and sealed along the rim with adhesive tape. At the end of 72 hour, the lid was removed to aerate the commodity and the test insect bags were retrieved and the contents transferred to 300 ml capacity glass bottles.
# (§9) Insect survivors in the samples were recorded at weekly intervals for 8 weeks. Mortality in fumigated batches was calculated based on emergence/survivors in controls.
# [2] = tested on: T. castaneum mixed-age cultures; assay: Fumigation in 125 litre plastic drums with 100 kg wheat, with/without perforated tubing (Example 6); type: in vivo, Tribolium castaneum; conditions: without perforated tubing, 200 mg/liter, 26 ± 2° C., 125 liter drum; for mortality at 200 µg/mL: Tribolium castaneum, 72 h, read-out: % mortality based on survivors in untreated controls; for Insect Survivors: 72 hours
# Experimental: In another set of experiments, fumigations were carried out in the plastic drums with 100 kg of wheat under similar conditions mentioned above except that there was no perforated tubing inserted into the grain and the total dose of allyl acetate (27 ml of liquid) was dispensed at one location, that is, on the top layer of the grain. In both sets of experiments, there were 3 replicates for control and fumigated batches.
# (§1) Insect mortality in fumigated batches was determined by taking into consideration of survivors in respective controls as 100%.
# [3] = tested on: S. oryzae mixed-age cultures; conditions: 72 hours at 26±2° C., 19.5 liter tin container with 12 kg wheat
# Source text: as §4, §5, §6, §7, §8, §9
# [4] = tested on: T. castaneum mixed-age cultures; conditions: 200 mg/liter, 26 ± 2° C., 19.5 liter tin container with 12 kg of wheat
# Experimental: Further fumigation tests were carried out with allyl acetate at 200 mg/litre and with three different exposure periods of 24, 48 and 72 hours in 19.5 litre tin containers filled with 12 kg of wheat. Mixed- age cultures of R. dominica, S. oryzae and T. castaneum were used as the test insects.
# Mixed-age cultures of S. oryzae and R. dominica were obtained by allowing 300 adults of the individual species to breed in about 1 kg of wheat in a 2-liter glass jar. To obtain mixed- age culture of T. castaneum about 300 adults were released into 1 kg of whole-wheat flour plus 5% dried yeast in a 2-litre glass jar. The insect culture jars were kept under the rearing temperature conditions i.e., 25±1° C. for S. oryzae and T. castaneum and 30±1° C. for R. dominica. The infested grain/flour after an incubation period of 7 weeks was used for the experiment. The cultures were weighed into 50 gm aliquots in 21 cm×14 cm size cloth bags. One set of three test insect bags comprising R. dominica, S. oryzae and T. castaneum were kept at the bottom of the container before filling the grain. […] Another set of three-test insect bags was kept on the top layer of grains. The grain-filled containers were, then, fumigated with allyl acetate for 24, 48 and 72 hours at 26±2° C. The commodity was treated with allyl acetate at the dosage of 200 mg/litre. Required quantity of allyl acetate was measured in 10 and 25 ml measuring cylinder and quickly poured on to 5 gm of absorbent cotton wool kept over the grain layer in the tin container. Immediately after dosing, the container was closed with the lid tightly and sealed along the rim with adhesive tape. At the end of the exposure period, the lid was removed to aerate the commodity and the test insect bags were retrieved and the contents transferred to 300 ml capacity glass bottles. Insect survivors in the samples were recorded at weekly intervals for 8 weeks. Mortality in fumigated batches was calculated based on emergence/survivors in controls.
# [5] = tested on: R. dominica mixed-age cultures; assay: Fumigation in 125 litre plastic drums with 100 kg wheat, with/without perforated tubing (Example 6); type: in vivo, Rhyzopertha dominica; conditions: for Insect Survivors / mortality at 200 µg/mL: R. dominica, 200 mg/liter, 72 hours, 26 ± 2° C., 125 liter drum, 100 kg wheat; for mortality at 200 µg/mL: 72 h, read-out: % mortality based on survivors in untreated controls
# Experimental: (§2) In another set of experiments, fumigations were carried out in the plastic drums with 100 kg […] acetate (27 ml of liquid) was dispensed at one location, that is, on the top layer of the grain. In both sets of experiments, there were 3 replicates for control and fumigated batches.
# as §1
# [6] = tested on: S. oryzae mixed-age cultures; assay: as above; type: in vivo, Sitophilus oryzae; conditions: for Insect Survivors / mortality at 200 µg/mL: S. oryzae, 200 mg/liter, 72 hours, 26 ± 2° C., 125 liter drum, 100 kg wheat; for mortality at 200 µg/mL: 72 h, read-out: % mortality based on survivors in untreated controls
# Experimental: as §2, §1
# Tribolium castaneum = assay: whole plant or invertebrate
# Experimental: (§3) Cryptolestes sp. was reared on wheat feed. S. oryzae, Cryptolestes sp. and T. castaneum cultures were maintained at 25±1° C. and 70% RH whereas R. dominica cultures were maintained at 30±1° C. and 70% RH. From the established cultures, 2-week-old adults were taken and counted into 10 cm×2.3 cm size test tubes at 50 per replicate. The mouth of the tube was closed with a cloth piece held by small rubber ring. The insects were exposed to a range of doses (10 to 100 mg/litre) of esters for 24 hours in 0.85-liter desicators at the laboratory temperature of 26±2° C. Pure grade esters including allyl acetate, butyl acetate, ethyl acetoacetate, isopropyl acetate and propyl acetate were procured from Merck India Ltd. In each desiccator a 9 cm diameter Whatman No. 1 filter circle was placed; the filter circle acted as evaporating surface for the injected liquids (esters). Required quantity of the ester was drawn from the bottles using 10, 25 or 50 micro litre liquid syringe. There were 6 replicates for each dose with equal number of replicates for untreated control. The exposure period in all cases was 24 hours. […] Insect mortality was assessed after 14 days. Corrected mortality was arrived at based on Abbott's formula (1925).
# Rhyzopertha dominica = assay: whole plant or invertebrate
# Experimental: as §3
# Sitophilus oryzae = assay: whole plant or invertebrate
# Experimental: as §3
# rat = conditions: cited from earlier work
# [7] = with perforated tubing, test insect bag at bottom layer
# [8] = with perforated tubing, test insect bag at middle layer
# [9] = with perforated tubing, test insect bag at top layer
# [10] = without perforated tubing, test insect bag at bottom layer
# [11] = without perforated tubing, test insect bag at middle layer
# [12] = without perforated tubing, test insect bag at top layer
# [13] = Tribolium castaneum, read-out: Mortality (%) (Mean ± SD)
# [14] = Rhyzopertha dominica, read-out: Mortality (%) (Mean ± SD)
# [15] = Sitophilus oryzae, read-out: Mortality (%) (Mean ± SD)
smiles,measurement,setting,value
C=CCOC(C)=O [allyl acetate],% mortality based on survivors in controls,[1]; 100 mg/liter,(100) %
same,No. of survivors from 50 g lots of mixed-age cultures following treatment,[1]; 100 mg/liter,0
same,% mortality based on survivors in controls,[1]; 150 mg/liter,(100) %
same,No. of survivors from 50 g lots of mixed-age cultures following treatment,[1]; 150 mg/liter,0
same,% mortality based on survivors in controls,[1]; 200 mg/liter,(100) %
same,No. of survivors from 50 g lots of mixed-age cultures following treatment,[1]; 200 mg/liter,0
same,% mortality based on survivors in controls,[1]; 400 mg/liter,(100) %
same,No. of survivors from 50 g lots of mixed-age cultures following treatment,[1]; 400 mg/liter,0
same,% mortality based on survivors in controls,[1]; 600 mg/liter,(100) %
same,No. of survivors from 50 g lots of mixed-age cultures following treatment,[1]; 600 mg/liter,0
same,% mortality based on survivors in controls,[1]; 800 mg/liter,(100) %
same,No. of survivors from 50 g lots of mixed-age cultures following treatment,[1]; 800 mg/liter,0
same,mortality at 200 µg/mL,[2]; bottom layer,0%
same,mortality at 200 µg/mL,[2]; middle layer,100%
same,mortality at 200 µg/mL,[2]; top layer,99.4%
same,Insect Survivors,[2]; test insect bag at bottom layer,39.00
same,Insect Survivors,[2]; test insect bag at middle layer,0
same,Insect Survivors,[2]; test insect bag at top layer,0.33
same,% mortality based on survivors in controls,[3]; 100 mg/liter,(98.9) %
same,No. of survivors from 50 g lots of mixed-age cultures following treatment,[3]; 100 mg/liter,11.5
same,% mortality based on survivors in controls,[3]; 150 mg/liter,(99.9) %
same,No. of survivors from 50 g lots of mixed-age cultures following treatment,[3]; 150 mg/liter,1
same,% mortality based on survivors in controls,[3]; 200 mg/liter,(100) %
same,No. of survivors from 50 g lots of mixed-age cultures following treatment,[3]; 200 mg/liter,0
same,% mortality based on survivors in controls,[3]; 400 mg/liter,(100) %
same,No. of survivors from 50 g lots of mixed-age cultures following treatment,[3]; 400 mg/liter,0
same,% mortality based on survivors in controls,[3]; 600 mg/liter,(100) %
same,No. of survivors from 50 g lots of mixed-age cultures following treatment,[3]; 600 mg/liter,0
same,% mortality based on survivors in controls,[3]; 800 mg/liter,(100) %
same,No. of survivors from 50 g lots of mixed-age cultures following treatment,[3]; 800 mg/liter,0
same,% mortality based on survivors in controls,[4]; exposure period 24 hour,(100) %
same,No. of survivors from 50 g lots of mixed-age cultures following treatment,[4]; exposure period 24 hour,0
same,% mortality based on survivors in controls,[4]; exposure period 48 hour,(100) %
same,No. of survivors from 50 g lots of mixed-age cultures following treatment,[4]; exposure period 48 hour,0
same,% mortality based on survivors in controls,[4]; exposure period 72 hour,(100) %
same,No. of survivors from 50 g lots of mixed-age cultures following treatment,[4]; exposure period 72 hour,0
same,Insect Survivors,[5]; [7],0
same,Insect Survivors,[5]; [8],0
same,Insect Survivors,[5]; [9],0
same,Insect Survivors,[5]; [10],0.67
same,Insect Survivors,[5]; [11],0
same,Insect Survivors,[5]; [12],0
same,mortality at 200 µg/mL,"[5]; Rhyzopertha dominica, with perforated tubing, bottom layer",100%
same,mortality at 200 µg/mL,"[5]; Rhyzopertha dominica, with perforated tubing, middle layer",100%
same,mortality at 200 µg/mL,"[5]; Rhyzopertha dominica, with perforated tubing, top layer",100%
same,mortality at 200 µg/mL,"[5]; Rhyzopertha dominica, without perforated tubing, bottom layer",99.6%
same,mortality at 200 µg/mL,"[5]; Rhyzopertha dominica, without perforated tubing, middle layer",100%
same,mortality at 200 µg/mL,"[5]; Rhyzopertha dominica, without perforated tubing, top layer",100%
same,dosage for 100% kill of all stages,"[5]; Rhyzopertha dominica, all stages, preferred exposure period 72 hours",200 mg per litre of space
same,Insect Survivors,[6]; [7],0
same,Insect Survivors,[6]; [8],0
same,Insect Survivors,[6]; [9],0
same,Insect Survivors,[6]; [10],22.33
same,Insect Survivors,[6]; [11],0.33
same,Insect Survivors,[6]; [12],0
same,mortality at 200 µg/mL,"[6]; Sitophilus oryzae, with perforated tubing, bottom layer",100%
same,mortality at 200 µg/mL,"[6]; Sitophilus oryzae, with perforated tubing, middle layer",100%
same,mortality at 200 µg/mL,"[6]; Sitophilus oryzae, with perforated tubing, top layer",100%
same,mortality at 200 µg/mL,"[6]; Sitophilus oryzae, without perforated tubing, bottom layer",95.3%
same,mortality at 200 µg/mL,"[6]; Sitophilus oryzae, without perforated tubing, middle layer",99.9%
same,mortality at 200 µg/mL,"[6]; Sitophilus oryzae, without perforated tubing, top layer",100%
same,dosage for 100% kill of all stages,"[6]; Sitophilus oryzae, all stages, preferred exposure period 72 hours",200 mg per litre of space
same,mortality at 10 µg/mL,Tribolium castaneum; [13],96 ± 3.7%
same,mortality at 20 µg/mL,Tribolium castaneum; [13],100%
same,mortality at 30 µg/mL,Tribolium castaneum; [13],100%
same,mortality at 50 µg/mL,Tribolium castaneum; [13],100%
same,mortality at 100 µg/mL,Tribolium castaneum; [13],100%
same,mortality of the adults,Tribolium castaneum; in vivo,100%
same,mortality at 10 µg/mL,Rhyzopertha dominica; [14],100%
same,mortality at 20 µg/mL,Rhyzopertha dominica; [14],100%
same,mortality at 30 µg/mL,Rhyzopertha dominica; [14],100%
same,mortality at 50 µg/mL,Rhyzopertha dominica; [14],100%
same,mortality at 100 µg/mL,Rhyzopertha dominica; [14],100%
same,mortality of the adults,Rhyzopertha dominica; in vivo,100%
same,mortality at 10 µg/mL,Sitophilus oryzae; [15],92.3 ± 12.7%
same,mortality at 20 µg/mL,Sitophilus oryzae; [15],100%
same,mortality at 30 µg/mL,Sitophilus oryzae; [15],100%
same,mortality at 50 µg/mL,Sitophilus oryzae; [15],100%
same,mortality at 100 µg/mL,Sitophilus oryzae; [15],100%
same,mortality of the adults,Sitophilus oryzae; in vivo,100%
same,LD 50 rat oral,rat,LD 50 rat oral 130 mg/kg
